Where two headings read alike, the source gives them in different places.
What was measured:
[1] = system: prostate cancer LNCaP cells; experiment: Antiproliferation assay (MTT), LNCaP; type: cell-based; conditions: Homo sapiens, 360 h, 15-day treatment, read-out: LNCaP EC50 (antiproliferative)
Method: We next examined the spectrum of antitumor activity for compounds 1–4. These compounds were incubated with a panel of six human leukemia and solid tumor cell lines, including two MLL-rearranged leukemia cells MV4-11 and Molm-13 containing fusion oncogenes MLL-AF4 and -AF9, respectively. […] Also included in the studies are breast cancer MCF-7 and prostate cancer LNCaP cells. […]
Proliferation inhibition assay for suspension leukemia cells was performed using an XTT assay kit (Roche) with our previously described method. Proliferation inhibition assay for solid tumor cell lines MCF-7 and LNCaP was performed using our previous described MTT assay. The antiproliferation EC50 values were determined by Prism, and the reported results were the mean values of at least three independent experiments.

[2] = target: T1, human MAO-A (Homo sapiens, UniProt P21397); experiment: MAO-A inhibition (MAO-Glo); type: biochemical
T1 construct: purchased Sigma
T1 sequence (P21397 1-527): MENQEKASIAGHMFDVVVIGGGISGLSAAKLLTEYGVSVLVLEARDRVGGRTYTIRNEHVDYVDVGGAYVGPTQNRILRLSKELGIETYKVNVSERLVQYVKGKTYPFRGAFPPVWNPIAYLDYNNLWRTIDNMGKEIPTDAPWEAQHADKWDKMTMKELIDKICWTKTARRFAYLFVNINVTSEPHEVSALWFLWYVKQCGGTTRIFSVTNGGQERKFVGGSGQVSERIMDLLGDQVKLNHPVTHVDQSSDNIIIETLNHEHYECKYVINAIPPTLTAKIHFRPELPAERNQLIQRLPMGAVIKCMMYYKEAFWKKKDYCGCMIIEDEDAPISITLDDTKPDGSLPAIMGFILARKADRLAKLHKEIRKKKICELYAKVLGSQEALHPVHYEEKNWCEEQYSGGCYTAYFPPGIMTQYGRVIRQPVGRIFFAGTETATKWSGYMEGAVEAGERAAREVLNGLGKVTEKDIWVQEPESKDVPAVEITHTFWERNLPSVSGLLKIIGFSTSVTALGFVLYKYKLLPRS
Method: The cyclopropylamine LSD1 inhibitors were generally derived from MAO-A/-B inhibitor tranylcypromine, an antidepression drug. Because MAO-A and -B play important roles in the degradation of neurotransmitters (e.g., serotonin and dopamine) in the central nervous system, selective inhibition for LSD1 is highly desirable.
Recombinant human MAO-A and -B were purchased from Sigma. The inhibitory activity was determined using MAO-Glo assay kit (Promega). In brief, following the manufacturer’s protocol, assays were performed in 384-well white plates (Corning) using MAO-A or -B (100 nM) with a final volume of 20 μL. Reactions were quenched after 60 min by adding reconstituted luciferin detection reagent (20 μL/well); 20 min after addition of the detection reagent, the luminescence of each well was measured using Beckman DTX-880 microplate reader. IC50 calculation was similar to that of LSD1.

[3] = system: MV4-11 cells; experiment: FACS-based Annexin-V apoptosis assay; type: cell-based, human
Method: For Annexin V apoptosis assay, 10^5 cells/well were incubated with increasing concentrations of a compound for 7 or 14 days. Apoptosis was determined using the FITC Annexin V Apoptosis Detection Kit I (BD Bioscience) using the manufacturer’s protocol. For other FACS assays, cells were labeled with fluorochrome-conjugated monoclonal antibodies against human CD14, CD11b, CD45, or CD33 (BD Biosciences) according to the manufacturer’s recommendation. Cells were analyzed using a FACS Calibur (BD Biosciences/Applied Biosystems), and data were processed using the program Flowjo (version7.6.5).

[4] = system: human primary leukemia cells from an AML patient with MLL-ENL fusion oncogene; experiment: Colony-forming assay; type: cell-based; conditions: 336 h, colonies counted after 14 days, read-out: colony-forming ability EC50
Method: Colony-forming assay using non-serum culture media represents a useful method to assess self-renewal capacity of stem-like cancer cells. The number of cell colonies formed in the assay reflects the proportion of stem-like cells in a given number of cancer cells. […] Human MLL-rearranged AML samples will be obtained from the Children’s Oncology Group (COG) Biopathology Center, in accordance with the IRB-approved protocol H-24170. The colony-forming assay was performed according to our previously published method. After 14 days, the colony number of each culture dish was counted and imported into Prism 5.0 and EC50 values were determined by using the sigmoidal dose response curve fitting in the software.

[5] = system: HoxA9 and Meis1 expression in MV4-11 cells; experiment: Quantitative real-time PCR of HoxA9 and Meis1; type: cell-based, human
Method: Next, we examined whether LSD1 inhibition can block the expression of HoxA9 and Meis1, whose overexpression has been observed in MLL-rearranged leukemia.
For 3 days, 10^4 cells/well were incubated with a compound, and the RNA was extracted from cells using RNeasy mini kit (QIAGEN); 100–1000 ng of total RNA was reverse transcribed using iScript™ Reverse Transcription Supermix (Bio-Rad) using the manufacturer’s protocol. Quantitative real-time PCR was carried out using Fast SYBR Green Master Mix (Applied Biosystems) according to the manufacturer’s instructions. Measurements were performed in triplicate, using GAPDH as the reference gene. Real-time PCR was performed using Biosystems Step One Plus detection system. The following sequences of primers are used: […]

[6] = system: gene expression in MV4-11 cells; experiment: Microarray / GSEA; type: cell-based, human; conditions: 7 days
Method: To this end, triplicate samples of MV4-11 cells were treated with compounds 1 and 2 and the RNA of these samples was isolated, amplified, and hybridized to Illumina HT-12 microarrays. The microarray data were log2-transformed and normalized to have the same median values for comparative analysis. Moderate t test was applied to search for genes that were differentially expressed between the control and compound treated samples, using the filter thresholds of p values <0.05 and fold changes >4. […] Next, we used gene set enrichment analysis (GSEA) in an effort to find the possible mechanism(s) for the LSD1 inhibition-mediated antileukemia activity.
For 7 days, 10^5 cells/well were incubated with compounds. Cells were treated with Trizol® Reagent, frozen in liquid nitrogen, and shipped to Asuragen, Inc. (Austin, TX) for microarray experiments. RNA from these samples was isolated, amplified, and hybridized to Illumina Human HT-12 v4 arrays according to the manufacturer’s protocol. Microarray data were log2 transformed and normalized to have the same median for all the arrays. Moderate t statistics were used to find genes that were differentially expressed between the samples of interest. Benjamini and Hochberg method was used to correct for multiple comparisons. […]

[7] = range covers MAO-A and MAO-B, read-out: IC50 against MAO-A and -B (range over both enzymes)

Compound	EC50 [1]	IC50 [2, 7]	IC50 ([2]; read-out: MAO-A IC50)	apoptosis of MV4-11 cells ([3]; 30 nM, day 7)	apoptosis of MV4-11 cells ([3]; 30 nM, day 14)	apoptosis of MV4-11 cells ([3]; 300 nM, day 7)	apoptosis of MV4-11 cells ([3]; 300 nM, day 14)	EC50 [4]	expression of HoxA9 and Meis1 [5]	expression of hematopoietic differentiation and pro-apoptotic gene sets (GSEA) [6]	apoptosis of MV4-11 cells ([3]; 0.1 μM, 7 days)	apoptosis of MV4-11 cells ([3]; 0.1 μM, 14 days)	apoptosis of MV4-11 cells ([3]; 1 μM, 7 days)	apoptosis of MV4-11 cells ([3]; 1 μM, 14 days)
CN1CCN(C(=O)CNC2CC2c2ccc(OCc3ccccc3)cc2)CC1 (centres unmarked) [Compound 1]	3.7 µM	17.5 to 480 µM	17.5 µM	12%	20%	13%	26%	0.43 µM	significantly decrease the expression of both HoxA9 and Meis1 in a dose-dependent manner	significant upregulation				
CN1CCN(C(=O)CNC2CC2c2ccc(-c3ccc(F)nc3)cc2)CC1 (centres unmarked) [Compound 2]	10 µM	17.5 to 480 µM	120 µM					0.52 µM	significantly decrease the expression of both HoxA9 and Meis1 in a dose-dependent manner	significant upregulation	11%	13%	45%	49%

— paper PMC4789278, “Pharmacological inhibition of LSD1 for the treatment of MLL-rearranged leukemia” (Journal of Hematology & Oncology, 2016)
